Source: US20260284079A1, “LIPID PRODRUGS OF ALLOPR[…] USES THEREOF” (Seaport Therapeutics, Inc., priority 2023, published 2026)

Experiments:
[1] = Video-oculography (VOG), saccades; assay type: in vivo, human; conditions: day 1, all doses tested (250, 375, 500 mg)
Description: Video-oculography (VOG) is a non-invasive, visual method of measuring horizontal, vertical, and torsional components involved in eye tracking, making use of a head-mounted mask equipped with cameras. VOG was used to measure 3 assessment metrics: horizontal saccades (movement of eyes towards a point of fixation), horizontal anti-saccades (movement of eyes away from a point of fixation), and horizontal and vertical pursuits (fixation of eyes on a moving object).
Binocular (both eyes) movements viewing were measured during the saccades test. During this 1-min trial, the visual target (small square) will jump from 0° to 10° to the right or to the left in a pseudorandom sequence. Duration of the target on screen vary pseudo-randomly from 1,500 to 2,000 ms to minimize anticipation of the subject. Then the visual target will be extinguished during 200 ms before the next move starting from the center. The participant is instructed to track the target on screen from center to side and from side to center without anticipation. The antisaccades test is identical to the saccades test in its procedure (with 10° jumps of the target) except that there is no extinction of the target. […]
Binocular movements viewing were measured during the pursuit tests. […]

[2] = Food effect study, PK (Example 1 Part 2)
[3] = Quantitative electroencephalogram (qEEG); assay type: in vivo, human
Description: Quantitative Electroencephalogram (qEEG or EEG) has gained prominence as a useful biomarker in human drug studies as it is continuous, objective, repeatable, sensitive, reproducible, non-invasive and highly translatable from nonclinical data. EEG serves as biomarker in this protocol and provides PD outcomes for PK-PD modeling, thus enabling a more thorough understanding of the pharmacological effects of Compound 1. In addition, EEG can provide useful safety information regarding detection of epileptiform activity and any pro-convulsive effects of the study drug. Data outputs included spectral analysis and flat brain mapping, among others.
EEG was collected at multiple time points before and after dosing on Day 1 and Day 7 of the MAD portion of the study except for Cohort 8. For a given recording, the subject was fitted with a cap containing the electrodes. For each session, recordings were collected for approximately 15 minutes while subjects are sitting quietly, and include portions with eyes open and eyes closed.
The qEEG is a quantitative measurement of brain oscillations considering different frequency levels. Resting-state brain activity was recorded in 2 conditions (eyes closed and eyes open). For each electrode, a spectral analysis of the EEG signal was carried out to derive absolute and relative powers in standard frequency bands. […]

[4] = Sleep Quality Scale (SQS); assay type: in vivo, human; conditions: all cohorts
Experimental: The scale was administered in the morning, and subjects are asked to rate their sleep quality of the past 7 days, ranging from terrible (score of 0), poor (scores of 1-3), fair (scores of 4-6), good (scores of 7-9), and excellent (score of 10).

[5] = Columbia-Suicide Severity Rating Scale (C-SSRS); assay type: in vivo, human; conditions: parts 1-3
Experimental: The Columbia-Suicide Severity Rating Scale (C-SSRS) is a validated tool designed to quantify the severity of suicidal ideation and behavior. This scale was administered by individuals who have received training in its administration, as described in further detail at https://cssrs.columbia.edu/the-columbia-scale-c-ssrs/about-the-scale/.

[6] = Single ascending dose (SAD) study, PK (Example 1 Part 1)
[7] = Multiple ascending dose (MAD) study, PK (Example 1 Part 3); conditions: allopregnanolone and combined allopregnanolone
[8] = Body sway (posturography); assay type: in vivo, human; conditions: MAD
Experimental: Body Sway is assessed as a measure of a subject's slight postural movements in order to retain balance either statically in a neutral position or dynamically while in motion. Body Sway is typically measured by total displacement of the center of body mass relative to the base of support over time. Posturography is an objective, sensitive, reliable, and non-invasive method designed to assess the effects of drugs and alcohol on body sway and vigilance. Body sway is recorded using a computerized force-platform. Using specific positioners, bare feet subjects are asked to stand still and motionless, looking at a cue placed in front of them. Measurement of body sway (one minute with eyes open and one minute with eyes closed) is recorded as recommended by the International Society of Postuography. The length and area of the postural oscillations are then calculated.

Q: With CCCCCCCC(=O)OCC(COC(=O)CCCCCCC)OC(=O)CC(C)CC(=O)OCOC(=O)O[C@@H]1CC[C@@]2(C)[C@@H](CC[C@@H]3[C@@H]2CC[C@]2(C)[C@@H](C(C)=O)CC[C@@H]32)C1 (stereo partly drawn) [Compound 1] as the compound, how does the “time of maximum drop of saccade peak velocity” value [1] read?
A: 4 hour post-dose

Q: And the “maximal concentrations and exposure values, combined allopregnanolone compared to allopregnanolone” value ([2]; 140 mg food effect study)?
A: approximately 15 times higher

Q: And the “increase of AUC0-t, AUC0-inf and Cmax in fed (LF) group compared to fasted and fed (HF) groups” value ([2]; allopregnanolone and combined allopregnanolone, 140 mg)?
A: 1.3 to 1.5 fold

Q: What about the “qEEG power for the β-band (β1, β2, β3)” value ([3]; cohorts 4 (250 mg), 5 (375 mg), 6 (500 mg)) of the same compound?
A: dose-dependent increase in power

Q: And the “time of maximum qEEG effects following administration” value ([3]; day 1 and day 7)?
A: approximately 4 hours

Q: What about the “sleep quality as measured by SQS” value [4] of the same compound?
A: no meaningful improvements or worsening

Q: What about the “suicidal ideation or suicidal behavior” value [5] of the same compound?
A: No subjects across all parts (1-3) reported any suicidal ideation or suicidal behavior

Q: And the “dose proportionality of mean plasma allopregnanolone and combined allopregnanolone concentrations” value ([6]; doses up to 560 mg)?
A: increased at a dose proportional rate

Q: What about the oral bioavailability ([6]; human, oral) of the same compound?
A: high oral bioavailability

Q: What about the “dose proportionality of several PK parameters” value ([6]; range of 750 to 1000 mg) of the same compound?
A: greater than dose-proportional increase

Q: And the “maximal concentrations and exposure values, combined allopregnanolone compared to allopregnanolone” value ([6]; single ascending doses)?
A: at least 10 times higher

Q: And the “accumulation upon multiple dosing” value ([7]; once daily)?
A: minimal accumulation

Q: What about the “time to steady state” value ([7]; once daily administration) of the same compound?
A: Day 2 and Day 3

Q: And the “effects on body sway” value ([8]; day 1)?
A: Slight effects

Q: What about the “effects on body sway” value ([8]; day 7) of the same compound?
A: absent
